Data reported in the supplement of paper PMC10307832.

How the values were obtained:
Experiment in all cases: relative viability (nuclei count vs DMSO), 5 days (fraction); higher = more cells survive
[1] = compound: CC(C)(C)c1nc(-c2cccc(NS(=O)(=O)c3c(F)cccc3F)c2F)c(-c2ccnc(N)n2)s1 [Dabrafenib] + C[C@]1(O)C[C@@H](c2nc(-c3ccc4ccc(-c5ccccc5)nc4c3)c3c(N)nccn32)C1 [Linsitinib] (partner 1 µM)
Outline: (§1)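 Medians of duplicate plates are given as relative viability. That measure is the nuclei count in treated wells divided by the count in vehicle wells. Counts were taken on 4× images of lung cancer cell lines in 1536-well plates, 5 days after pin-tool dosing the day after seeding with one drug alone or a fixed anchor-drug dose plus five library-drug doses (not always all listed) in √10 steps.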

[2] = compound: NC(=O)c1ccc(N(C(N)=O)c2c(F)cccc2F)nc1-c1ccc(F)cc1F [VX-702] + C[C@@H](Oc1cc(-c2cnn(C3CCNCC3)c2)cnc1N)c1c(Cl)ccc(F)c1Cl [Crizotinib] (partner 1 µM)
Outline: as §1

[3] = compound: NC(=O)c1ccc(N(C(N)=O)c2c(F)cccc2F)nc1-c1ccc(F)cc1F [VX-702] + Nc1nc2[nH]cc(CCc3ccc(C(=O)N[C@@H](CCC(=O)O)C(=O)O)cc3)c2c(=O)[nH]1 [Pemetrexed] (partner 0.2 µM)
Outline: as §1

[4] = compound: NC(=O)c1ccc(N(C(N)=O)c2c(F)cccc2F)nc1-c1ccc(F)cc1F [VX-702] + O=C(c1cc(Cc2n[nH]c(=O)c3ccccc23)ccc1F)N1CCN(C(=O)C2CC2)CC1 [Olaparib] (partner 8 µM)
Outline: as §1

Cell Line	relative viability ([1]; first compound 0.003 µM)	relative viability ([1]; first compound 0.009487 µM)	relative viability ([1]; first compound 0.03 µM)	relative viability ([1]; first compound 0.09487 µM)	relative viability ([1]; first compound 0.3 µM)	relative viability ([2]; first compound 0.02 µM)	relative viability ([2]; first compound 0.2 µM)	relative viability ([2]; first compound 0.6325 µM)	relative viability ([2]; first compound 2 µM)	relative viability ([3]; first compound 0.02 µM)	relative viability ([3]; first compound 0.2 µM)	relative viability ([3]; first compound 0.6325 µM)	relative viability ([3]; first compound 2 µM)	relative viability ([4]; first compound 0.02 µM)	relative viability ([4]; first compound 0.2 µM)	relative viability ([4]; first compound 0.6325 µM)	relative viability ([4]; first compound 2 µM)
NCI-H520	1.01	0.93	0.741	0.853	1.05	0.887	0.687	0.784	0.966	0.713	0.486	0.636	0.765	0.358	0.305	0.379	0.289
HCC-44	0.624	0.706	0.822	0.605	0.701	0.802	0.739	0.817	0.971	0.615	0.652	0.653	0.678	1.01	0.982	0.989	0.963
NCI-H1915	1.11	1.14	1.08	1.02	0.964	0.868	0.845	0.913	0.944	0.519	0.476	0.446	0.455	0.28	0.257	0.238	0.241
NCI-H358		1.03	0.705	0.813	0.776	0.659	0.549	0.542	0.681	0.176	0.172	0.168	0.173	0.628	0.526	0.561	0.634
NCI-H2126	0.698	0.725	0.681	0.757	0.715	1.04	1.13	1.05	1.08	0.717	0.659	0.676	0.624	0.901	0.91	0.945	0.98
NCI-H596	1	1.14	0.796	1.08	1.14	0.914	0.986	1.02	1.19	0.535	0.455	0.567	0.534	0.66	0.714	0.898	0.685
NCI-H23		0.67	0.553	0.645	0.547	0.524	0.523	0.678	0.756	0.655	0.654	0.714	0.774	0.372	0.254	0.329	0.402
NCI-H650		1.27	0.769	0.43	0.516	0.669		0.761	1.04	1.22	0.932	0.92	0.958	0.435	0.433	0.452	0.456
LCLC-103H	1.04	1.08	0.84	1.13	1.09	1.04	0.973	1.13	1.07	0.503	0.445	0.469	0.469	0.788	0.757	0.795	0.817
NCI-H441		0.48	0.54	0.32	0.383	0.715	0.707	0.711	0.838	0.24	0.233	0.273	0.238	0.567	0.553	0.572	0.661
UMC-11	1.12	1.09	0.985	0.982	1.03	0.578	0.596	0.512	0.692	0.908	0.711	0.755	0.922	0.346	0.352	0.368	0.269
LK-2	0.587	0.875	0.225	0.381	0.53	0.258		0.223	0.23	0.277	0.272	0.236	0.247	0.68	0.601	0.555	0.751
COR-L23	0.997	0.974	0.843	0.886	0.883	0.768	0.666	0.668	0.757	0.203	0.183	0.21	0.23	0.351	0.339	0.379	0.386
NCI-H2405		0.967		0.735	0.721	0.791	0.813	0.774	0.99	1.11	1.04	1.04	1.2	0.931	0.805	0.897	0.901
HOP-62		1.07	0.804	0.831	0.977	0.946	0.651	0.549	0.915	0.365	0.311	0.284	0.309	0.478	0.611	0.553	0.65
NCI-H1975	1.06	1.04	0.889	0.995	0.905	0.919	0.982	0.889	1.14	0.312	0.296	0.301	0.287	0.792	0.746	0.809	1.1
NCI-H2085	0.827	0.857	0.944	0.908	0.845	0.921	0.926	1.03	0.908	0.82	0.957	0.949	0.852	0.818	0.824	0.878	0.833
